Measurements reported in paper PMC4558140, “Irreversible dual inhibitory mode: the novel Btk inhibitor PLS-123 demonstrates promising anti-tumor activity in human B-cell lymphoma” (Oncotarget, 2015).

Target: Btk (Homo sapiens, UniProt Q06187)
Assay: crystal structure of human Btk in complex with PLS-123 (Figure 1B); IC50 also stated; Western blot of p-Tyr223/p-Tyr551 Btk in cells
Assay type: binding
Text: crystal structure of human Btk in complex with PLS-123 (Figure 1B); IC50 also stated; Western blot of p-Tyr223/p-Tyr551 Btk in cells on Btk | Crystal structure of the human Btk in complex with PLS-123.

Btk, sequence (Q06187 2-659): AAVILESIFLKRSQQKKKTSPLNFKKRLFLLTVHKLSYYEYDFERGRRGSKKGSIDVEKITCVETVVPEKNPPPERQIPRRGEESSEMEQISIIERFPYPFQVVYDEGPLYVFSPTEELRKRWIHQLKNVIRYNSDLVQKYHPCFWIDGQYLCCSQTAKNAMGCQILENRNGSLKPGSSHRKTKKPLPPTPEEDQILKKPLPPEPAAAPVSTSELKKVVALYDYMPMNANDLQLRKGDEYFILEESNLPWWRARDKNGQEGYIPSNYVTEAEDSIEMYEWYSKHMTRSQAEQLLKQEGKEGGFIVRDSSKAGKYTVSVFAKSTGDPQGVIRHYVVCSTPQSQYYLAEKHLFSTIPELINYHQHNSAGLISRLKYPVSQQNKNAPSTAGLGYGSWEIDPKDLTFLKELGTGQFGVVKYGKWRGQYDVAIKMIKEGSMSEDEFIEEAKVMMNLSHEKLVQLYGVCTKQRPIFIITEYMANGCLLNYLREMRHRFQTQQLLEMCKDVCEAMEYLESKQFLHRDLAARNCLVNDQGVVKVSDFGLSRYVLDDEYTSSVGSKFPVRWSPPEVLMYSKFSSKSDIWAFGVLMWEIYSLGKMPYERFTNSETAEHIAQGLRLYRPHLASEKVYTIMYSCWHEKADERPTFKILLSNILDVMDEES

C=CC(=O)NCC(=O)Nc1cccc(Nc2ncc(NC(=O)c3cc(NC(=O)c4cccc(C(F)(F)F)c4)ccc3C)cn2)c1 [PLS-123]
IC50: < 5 nM
